Measurements taken from patent publication US20120121670A1, “POLYARGININE NANOCAPSULES” (priority 2009, published 2012).

Tested on: NCI-H460 lung cancer cell line
Assay: Cell proliferation inhibition
Format: cell-based
Conditions: Homo sapiens, docetaxel concentration, Graph Pad Prism 2.1, read-out: IC50 (concentration at which the proliferation of 50% of the population is inhibited)
Description: The % of cell viability at different concentrations of DCX is depicted for polyarginine NC, DCX in solution, polyarginine/DCX NC.
In order to evaluate the potential of the PArg nanocapsules encapsulating the docetaxel cytostatic molecule to inhibit the cell proliferation of the NCI-H460 lung cancer cell line the nanocapsules were prepared according to the method described in Example 3. The results shown in FIG. 9 show the great proliferation inhibition capacity of the nanocapsules encapsulating docetaxel in comparison with the free molecule. […] The IC50 values, concentration at which the proliferation of 50% of the population is inhibited, were calculated by means of the Graph Pad Prism 2.1 program (Graph Pad Software).

An IC50 of 13.3 nM was found for `CC(=O)O[C@@]12CO[C@@H]1C[C@H](O)[C@@]1(C)C(=O)[C@H](O)C3=C(C)[C@@H](OC(=O)[C@H](O)[C@@H](NC(=O)OC(C)(C)C)c4ccccc4)C[C@@](O)([C@@H](OC(=O)c4ccccc4)[C@H]21)C3(C)C` [docetaxel solution, docetaxel] in this work.
